Measured values as given in patent publication US6080761A, “Inhibition of smooth muscle cell migration by (R)-amlodipine” (Pfizer Inc., priority 1993, dated 2000).
Like-named read-outs stand apart in the source and are kept apart here.

System: rabbit aortic smooth muscle cells
Assay: aortic explant assay of smooth muscle cell migration induced by platelet-derived growth factor
Format: cell-based
Conditions: Oryctolagus cuniculus, read-out: % inhibition of SMC migration from explants
Experimental: In this method uniform pieces of intimal/medial tissue from rabbit aorta were cultured in individual wells of a well plate. Migration was induced by addition of platelet-derived growth factor to the culture. Following a lag phase of several days the smooth muscle cells migrated from the explanted tissue and proliferated.
The distance covered by the outgrowing smooth muscle cells was measured.
This assay was carried out with varying concentrations of test compound added to the culture. The compounds thus tested were the maleate salts of the racemic mixture of R(+) and S(-) amlodipine, the maleate salts of R(+) and S(-) amlodipine separately and the known calcium channel-blocking agents nitrendipine and verapamil.
The results obtained are shown in Table 1, in which the percentage inhibition of smooth muscle cell migration for concentrations of test compound of 1 nanomole and 0.1 nanomole are recorded.

[1] = 0.1 nM test compound, rabbit aortic explants, PDGF-induced migration
[2] = 1 nM test compound, rabbit aortic explants, PDGF-induced migration

CCOC(=O)C1=C(COCCN)NC(C)=C(C(=O)OC)C1c1ccccc1Cl (racemic) [Amlodipine (racemate), 3-ethyl-5-methyl-2-(2-aminoethoxy-methyl)-4-(2-chlorophenyl)-1,4-dihydro-6-methylpyridine-3,5-dicarboxylate]
inhibition at 0.0001 µM [1]: 39%
inhibition at 0.001 µM [2]: 33%

CCOC(=O)C1=C(COCCN)NC(C)=C(C(=O)OC)[C@H]1c1ccccc1Cl [Amlodipine R (+), R(+) isomer of 3-ethyl-5-methyl-2-(2-aminoethoxy-methyl)-4-(2-chlorophenyl)-1,4-dihydro-6-methylpyridine-3,5-dicarboxylate]
inhibition at 0.0001 µM [1]: 36%
inhibition at 0.001 µM [2]: 39%

CCOC(=O)C1=C(COCCN)NC(C)=C(C(=O)OC)[C@@H]1c1ccccc1Cl [Amlodipine S (-)]
inhibition at 0.0001 µM [1]: 21%
inhibition at 0.001 µM [2]: 30%

CCOC(=O)C1=C(C)NC(C)=C(C(=O)OC)C1c1cccc([N+](=O)[O-])c1 (stereo not shown) [Nitrendipine, nitrendipine]
inhibition at 0.0001 µM [1]: 14%
inhibition at 0.001 µM [2]: 28%

COc1ccc(CCN(C)CCCC(C#N)(c2ccc(OC)c(OC)c2)C(C)C)cc1OC (stereo not shown) [Verapamil, verapamil]
inhibition at 0.0001 µM: 13%
inhibition at 0.001 µM: 22%
